Reference: US10407437B2, “Camptothecin derivatives and uses thereof” (Los Gatos Pharmaceuticals, Inc., priority 2016, dated 2019)
Where two headings read alike, the source gives them in different places.

Legend:
HT29 cells = assay: Anti-proliferative activity, AlamarBlue assay, HT29 cells; assay type: cell-based, human; details: for IC50: HT29 human colorectal adenocarcinoma cells, 48-72 hours with compound, AlamarBlue, sigmoidal logistic regression curve, read-out: IC50 of anti-proliferative drugs in HT29 cells; for % inhibition compared to SN38 / inhibition at 33.3 µM: HT29 cells; for % inhibition compared to SN38: highest concentration tested, 100 μM; for inhibition at 33.3 µM: Homo sapiens
Procedure: (§1) Human colorectal adenocarcinoma cell lines HT29 and SW620, as well as murine colon carcinoma cell line CT26, were purchased from the American Type Culture Collection (ATCC) and grown in either Dulbecco's Modified Eagle Medium (DMEM) or Roswell Park Memorial Institute (RPMI) medium from Corning and Life Technologies, respectively. These media were supplemented with 10% fetal bovine serum (FBS, Atlanta Biologicals), as well as 1 mM sodium pyruvate (Corning) and 10 mM HEPES (Fisher) for CT26 cells. Cells were grown in Corning 75 cm^2 flasks and split approximately 6 days before plating, with a refeed of fresh media the day prior to plating. Anti-proliferative drugs 2, 3 and SN38, were reconstituted in DMSO for storage at −20° C. until use. AlamarBlue, a colorimetric cell metabolism reagent, was purchased from Life Technologies.
To qualify AlamarBlue incubation time and required cell density, cells were plated into flat bottom 96 well plates (Techno Plastic Products, Trasadingen, Switzerland) at plating densities from 4×10^4 to 1.25×10^3 cells per well. The cells were incubated at 37° C. inside a Nu-Aire TS Autoflow incubator with 5% CO2 and humidity for 48-72 hours, AlamarBlue reagent was then added to all wells, equivalent to 10% of the culture volume or 20 μL. The plates were returned to the 37° C. incubator, and the absorbance at 570 and 600 nm were assessed using a Bio-Tek Epoch microplate reader at 1, 2, 4, 7 and in some experiment 24 hours post addition of AlamarBlue. Once the optimum cell density and incubation time was determined for each cell line, testing of the anti-proliferative drugs on the cells was initiated. For each cell line, cells were plated at 5×10^3 cells per well and incubated at 37° C. for 24 hours, at which time the anti-proliferative compounds were added. […] Aliquots of anti-proliferatives were thawed, diluted in media appropriate for each cell line, and serially diluted 1:3. A serial pipetter, was used to deliver 100 μl of each concentration of anti-proliferative compound to the appropriate wells in triplicate, the plate was tapped gently to mix, and then incubated at 37° C. for 48-72 hours. Control wells containing media alone and media with an equal percentage of DMSO in comparison to the initial anti-proliferative dilution were also established in each plate. After a minimum of 48 hours of incubation, 20 μl of AlamarBlue was added to each experimental well as well as the negative control wells. AlamarBlue positive control wells, containing 200 μl of 100% reduced AlamarBlue, were also established to provide a colorimetric endpoint reference for the assay. After addition of AlamarBlue, plates were incubated for 4 hours at 37° C. and absorbance assessed using the Epoch microplate reader. Absorbances were used to calculate the % inhibition for each well using the following equation, where O1 is the molar extinction coefficient of oxidized AlamarBlue at 570 nm (80586), O2 is the molar extinction coefficient of oxidized AlamarBlue at 600 nm (117216), A1 is the absorbance of the test wells at 570 nm, A2 is the absorbance of the test wells at 600 nm, P1 is the absorbance of the control wells with AlamarBlue but without test agent at 570, and P2 is the absorbance of the control wells with AlamarBlue but without the test agent at 600. % difference between=(O2×A1)−(O1×A2)×100treated and untreated cells (O2×P1)−(O1×P2)
(§2) The dose response data generated by these values was used to calculate the half maximal inhibitory concentration (IC50) using a regression curve (3 or 4 parameter logistic sigmoidal curve or sigmoidal sigmoid curve) in Sigma Plot, version 12.5. Statistical differences were calculated using SPSS Statistics software, version 17.0, using the independent t-test with an α of 0.05. […]

SW620 cells = assay: Anti-proliferative activity, AlamarBlue assay, SW620 cells; assay type: cell-based, human; details: for IC50: SW620 human colorectal adenocarcinoma cells, 48-72 hours with compound, AlamarBlue, sigmoidal regression curve, read-out: IC50 of anti-proliferative drugs in SW620 cells
Procedure: as §1
To qualify AlamarBlue incubation time and required cell density, cells were plated into flat bottom 96 well plates (Techno Plastic Products, Trasadingen, Switzerland) at plating densities from 4×10^4 to 1.25×10^3 cells per well. The cells were incubated at 37° C. inside a Nu-Aire TS Autoflow incubator with 5% CO2 and humidity for 48-72 hours, AlamarBlue reagent was then added to all wells, equivalent to 10% of the culture volume or 20 μL. The plates were returned to the 37° C. incubator, and the absorbance at 570 and 600 nm were assessed using a Bio-Tek Epoch microplate reader at 1, 2, 4, 7 and in some experiment 24 hours post addition of AlamarBlue. Once the optimum cell density and incubation time was determined for each cell line, testing of the anti-proliferative drugs on the cells was initiated. […] After addition of AlamarBlue, plates were incubated for 4 hours at 37° C. and absorbance assessed using the Epoch microplate reader. Absorbances were used to calculate the % inhibition for each well using the following equation, where O1 is the molar extinction coefficient of oxidized AlamarBlue at 570 nm (80586), O2 is the molar extinction coefficient of oxidized AlamarBlue at 600 nm (117216), A1 is the absorbance of the test wells at 570 nm, A2 is the absorbance of the test wells at 600 nm, P1 is the absorbance of the control wells with AlamarBlue but without test agent at 570, and P2 is the absorbance of the control wells with AlamarBlue but without the test agent at 600. % difference between=(O2×A1)−(O1×A2)×100treated and untreated cells (O2×P1)−(O1×P2)
as §2

CT26 cells = assay: Anti-proliferative activity, AlamarBlue assay, CT26 cells; assay type: cell-based; details: CT26 murine colon carcinoma cells, 48-72 hours with compound, 4 parameter regression curve, read-out: IC50 of anti-proliferative drugs in CT26 cells
Procedure: as §1
To qualify AlamarBlue incubation time and required cell density, cells were plated into flat bottom 96 well plates (Techno Plastic Products, Trasadingen, Switzerland) at plating densities from 4×10^4 to 1.25×10^3 cells per well. […] The plates were returned to the 37° C. incubator, and the absorbance at 570 and 600 nm were assessed using a Bio-Tek Epoch microplate reader at 1, 2, 4, 7 and in some experiment 24 hours post addition of AlamarBlue. Once the optimum cell density and incubation time was determined for each cell line, testing of the anti-proliferative drugs on the cells was initiated. […] After addition of AlamarBlue, plates were incubated for 4 hours at 37° C. and absorbance assessed using the Epoch microplate reader. […]
as §2

Row | SMILES | IC50 (HT29 cells) | % inhibition (SW620 cells; SW620 cells, throughout all concentrations tested (100 μM to 0.4 μM)) | IC50 (SW620 cells) | IC50 (CT26 cells) | % inhibition compared to SN38 (HT29 cells) | IC50 (HT29 cells; HT-29) | inhibition at 33.3 µM (HT29 cells; HT-29) | IC50 (SW620 cells; SW-620) | IC50 (CT26 cells; Mus musculus)
1 | CCc1c2c(nc3ccc(O)cc13)-c1cc3c(c(=O)n1C2)COC(=O)[C@]3(O)CC [SN38, reference compound] | 0.2 µM | over 55% | 0.7 µM | 0.6 µM |  |  |  |  | 
2 | CCCCCCCCCCCCCC(=O)O[C@]1(CC)C(=O)OCc2c1cc1n(c2=O)Cc2c-1nc1ccc(O)cc1c2CC [Compound 3] |  |  |  |  | not significantly different from SN38 | 17.1 µM | > 54% | 10.3 µM | 14.2 µM
3 | CCCCC(=O)O[C@]1(CC)C(=O)OCc2c1cc1n(c2=O)Cc2c-1nc1ccc(O)cc1c2CC [Compound 2] |  |  |  |  | not significantly different from SN38 | 5.6 µM | > 54% | 1.9 µM | 18 µM
